These compounds were tested on M. tuberculosis H37Rv growth with meropenem, percent inhibition (assay: beta-lactam sensitization of Mtb H37Rv, H37Rv (AID 434955)).
Work on S=C(NN=C1C2CC3CC(C2)CC1C3)Nc1ccccc1 yielded an IC90 of 51.4 µM.
With CCCCC12CN3CC(C)(CN(C1)C3c1ccc([N+](=O)[O-])o1)C2=O (stereo not drawn) the IC90 was 23.5 µM.
O=C(Nc1ccccc1)Nc1csc2ccccc12 gave an IC90 of 20.9 µM.
Compound Cc1nnc(SCc2cccc(Cl)c2)n(N)c1=O has an IC90 of 10.1 µM.
O=C(Cc1ccc(Cl)cc1Cl)Nc1ccc(OC(F)F)c(Cl)c1 gave an IC90 of 13.7 µM.
CC1CCc2c(sc(NC(=O)CCCn3cnc([N+](=O)[O-])n3)c2C(N)=O)C1 (stereo not drawn) showed an IC90 of 90.4 µM.
COc1ccc(N2C(=O)NC(=O)/C(=C\c3ccc([N+](=O)[O-])s3)C2=O)cc1 was tested, and the IC90 was 21.3 µM.
For CN(C)CCCN(C(=O)/C=C/c1cccs1)c1nc2ccc(F)cc2s1, the IC90 was 48.4 µM.
In the case of COc1cccc(/C=N/NC(=O)NC23CC4CC(CC(C4)C2)C3)c1O, the IC90 is reported as 26.8 µM.
O=C(CC12CC3CC(CC(C3)C1)C2)NCc1ccc(F)cc1 showed an IC90 of 10.4 µM.
O=C(CSc1ncn[nH]1)Nc1cccc2ccccc12 showed an IC90 of 65 µM.
COCCCn1c(=O)/c(=C\c2cccc(OC)c2OC)s/c1=C(/C#N)C(=O)Nc1ccc(C(=O)O)cc1 gave an IC90 of 24.6 µM.
COc1ccccc1N1CCN(CC(=O)Nc2cc(F)ccc2C)CC1 gave an IC90 of 91 µM.
With CCOC(=O)CSc1nnc(CNC(=O)c2cccs2)n1CCc1ccccc1 the IC90 was 49.5 µM.
C[C@H]1C=CC(=O)O[C@H]1c1ccccc1 was tested, and the IC90 was 49.5 µM.
With CCOC(=O)CNC(=O)/C(=C\c1ccc(F)cc1)NC(=O)c1ccccc1 the IC90 was 35.1 µM.
CCOC(=O)N1CCN(C(=O)CSc2nnc(COc3ccccc3)o2)CC1 gave an IC90 of 18.4 µM.
Cc1ccc(-c2[nH][nH]c(=O)c(=O)c2N=Nc2ccccc2)cc1 gave an IC90 of 86.2 µM.
O=C1/C(=C/c2ccncc2)CCc2ccccc21 was tested, and the IC90 was 29.1 µM.
In the case of Cc1onc(-c2ccccc2Cl)c1C(=O)NCc1ccc2c(c1)cc(C)n2C, the IC90 is reported as 29.4 µM.
O=C(/C=C/c1ccccn1)c1cc(Br)ccc1O showed an IC90 of 45.1 µM.
In the case of Cc1nnnn1/C(=C\c1ccccc1)C(=O)OCC(=O)NC1CCCCC1, the IC90 is reported as 17.6 µM.
O=C(Cn1cnc2sc3c(c2c1=O)CCCC3)NCC(=O)Nc1ccccc1F showed an IC90 of 95.5 µM.
C/C(=N\OCC(=O)Nc1nc2ccccc2s1)c1ccccc1 was tested, and the IC90 was 35.6 µM.
O=C(CCNc1ccccc1)c1cccc([N+](=O)[O-])c1 was tested, and the IC90 was 45.8 µM.
Compound Cc1cccc(OCc2nc(-c3ccccn3)n[nH]2)c1 has an IC90 of 7.37 µM.
COC(=O)c1sc(-c2ccc(C(C)(C)C)cc2)cc1NC(=O)CCC(=O)O showed an IC90 of 28.7 µM.
Cc1ccccc1OCC(=O)Nc1ccccc1N1CCCCC1 showed an IC90 of 13.5 µM.
With O=C(Nc1cccc(Cl)c1N1CCOCC1)c1ccc([N+](=O)[O-])o1 the IC90 was 38.2 µM.
Cc1cc(=S)nc(-c2ccccn2)[nH]1 was tested, and the IC90 was 19.7 µM.
Cn1ccnc1C(=O)Cc1ccc([N+](=O)[O-])cc1 was tested, and the IC90 was 22.6 µM.
CCCCNC(=O)c1onc(CSc2ccccc2C)c1C(=O)O showed an IC90 of 50.6 µM.
COc1ccc(OC)c(-c2cc(C(=O)Nc3c(C)n(C)n(-c4ccccc4)c3=O)no2)c1 was tested, and the IC90 was 49.5 µM.
CCOC(=O)c1c(C)n(-c2ccccc2)c2ccc(OCCN(C)C)cc12 gave an IC90 of 21.7 µM.
CN(C)S(=O)(=O)c1ccc(C(=O)/C=C/c2cccnc2)cc1 was tested, and the IC90 was 12.1 µM.
For CCc1cc(C(=O)O)c(NC(=O)/C=C/c2ccc(OC)cc2)s1, the IC90 was 59.7 µM.
Work on CN1C/C(=N\S(=O)(=O)c2ccccc2)N(C)C1=O yielded an IC90 of 33.7 µM.
Compound O=C(Nc1nc2ccccc2n1CCN1CCCC1)C1CCCCC1 has an IC90 of 27.5 µM.
CCNc1nc(CN2CCCCC2)nc2scc(-c3ccccc3)c12 gave an IC90 of 57.3 µM.
With CCCC(C)NC(=O)c1ccc(OCc2ccc(Cl)cc2)c(OC)c1 (stereo not drawn) the IC90 was 11.6 µM.
With O=C1CS/C(=N/N=C2C3CC4CC(C3)CC2C4)N1 the IC90 was 13.8 µM.
In the case of COc1ccc(-c2cc(=Nc3ccc(C)cc3)c3ccccc3o2)cc1, the IC90 is reported as 98.3 µM.
For Cc1ccc(C)c(CSc2nnc(C)c(=O)n2N)c1, the IC90 was 20.4 µM.
Work on Cc1cc(=O)[nH]c(N/N=C/c2c(F)c(F)c(F)c(F)c2F)n1 yielded an IC90 of 82.3 µM.
In the case of Cc1ccc(C2=N/C(=C\c3cccc(F)c3)C(=O)O2)cc1, the IC90 is reported as 4.02 µM.
Compound Cc1ccc(C)c(N2CCN(CC3CC=CCC3)CC2)c1 (stereo not drawn) has an IC90 of 60.7 µM.
Compound CC12CCC(C/C1=N\N=C1\NC(=O)/C(=C\c3cccc(Br)c3)S1)C2(C)C (stereo not drawn) has an IC90 of 37.7 µM.
Compound Cc1nnc(SCC2=C(C(=O)O)N3C(=O)C(NC(=O)COc4ccc(F)cc4)C3SC2)s1 (stereo not drawn) has an IC90 of 9.33 µM.
Work on CN(C)C1=C(Cl)C(=O)N(c2ccc(Cl)c(Cl)c2)C1=O yielded an IC90 of 14.9 µM.
Work on COc1cc(C(=O)N/N=C/c2ccc(OC(=O)c3cccc(C)c3)cc2)ccc1O yielded an IC90 of 53.4 µM.
CCOC(=O)COc1ccc2nsnc2c1 gave an IC90 of 26 µM.
Compound CCCOc1ccc(C(=O)N/N=C/c2ccc(-c3ccc(S(=O)(=O)Nc4ncccn4)cc3)o2)cc1 has an IC90 of 26.1 µM.
Work on COCCCn1c(=O)/c(=C\c2ccccc2OC(C)C)s/c1=C(/C#N)C(=O)Nc1ccc(C(=O)O)cc1 yielded an IC90 of 18.5 µM.
Work on Cc1cc2ccccc2n1CCNC(=O)COc1ccccc1 yielded an IC90 of 42.8 µM.
Work on O=C1OC(/C=C/c2ccccc2)=NC/1=C/c1ccco1 yielded an IC90 of 13.9 µM.
For C/C(CC(=O)Nc1c(C)cc(C)cc1C)=N\NC(=O)c1cnccn1, the IC90 was 17.4 µM.
Work on O=C(Oc1c(-c2ccccc2)c(=O)n2c3c(cccc13)CC2)c1cccc([N+](=O)[O-])c1 yielded an IC90 of 62.3 µM.
Work on CC(=O)c1ccc(OC(=O)N(c2ccccc2)c2ccccc2)cc1 yielded an IC90 of 32.9 µM.
